Like-named read-outs stand apart in the source and are kept apart here.
Tests used:
[1] = biological target: recombinant human BACE-1 protein (Homo sapiens (Human), UniProt P56817); assay: Measurement of Inhibition of β-Secretase Activity; type: biochemical
Procedure, shortened: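 Recombinant human BACE-1 incubated with compound and Eu-cryptate-labelled biotinylated peptide substrate 3 h at 30° C in 50 mM sodium acetate pH 5.0, 0.008% Triton X-100. Streptavidin-XL665 in KF-containing phosphate buffer pH 7.0 then added, 1 h at 30° C, for time-resolved FRET read-out.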

[2] = fluorescence-quenched peptide substrate 18 nM, BACE-1 7.4 nM, 3 h at 30° C., pH5.0, read-out: IC50 value
[3] = recombinant human BACE-1 protein, 3 h at 30° C., pH5.0, read-out: IC50 value

recombinant human BACE-1 protein, sequence (P56817 46-501): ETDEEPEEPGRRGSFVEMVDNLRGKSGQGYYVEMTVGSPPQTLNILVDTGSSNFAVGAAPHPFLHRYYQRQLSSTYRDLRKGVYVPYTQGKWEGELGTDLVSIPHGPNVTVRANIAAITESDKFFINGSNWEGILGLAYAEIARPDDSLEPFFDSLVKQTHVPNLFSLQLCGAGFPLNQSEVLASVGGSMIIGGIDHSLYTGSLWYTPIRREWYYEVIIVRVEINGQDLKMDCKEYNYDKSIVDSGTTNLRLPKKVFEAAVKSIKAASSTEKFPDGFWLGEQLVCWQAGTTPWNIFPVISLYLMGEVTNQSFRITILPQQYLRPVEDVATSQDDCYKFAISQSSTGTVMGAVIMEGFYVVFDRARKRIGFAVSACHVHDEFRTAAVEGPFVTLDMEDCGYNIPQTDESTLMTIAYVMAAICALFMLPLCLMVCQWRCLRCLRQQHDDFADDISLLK

Row | IC50 [1, 2] [µM] | melting point | IC50 [1, 3] [µM] | SMILES | IC50 [1] [µM]
1 | < 100 | 122 to 126 °C | – | CN(C)c1cnc(C(=O)Nc2cccc(C3(C)CCSC(N)=N3)c2)cn1 (centres unmarked) [Compound 302] | –
2 | < 100 | 212 to 213 °C | – | COc1ccc2cc(C3(C)CCSC(N)=N3)ccc2c1 (centres unmarked) [Compound 871] | –
3 | < 100 | 114 to 115 °C | – | CC1(c2ccc(Oc3ccc(F)cc3)cc2)CCSC(N)=N1 (centres unmarked) [Compound 267] | –
4 | < 100 | 110 to 111 °C | – | Cc1ccccc1C1(C)CCSC(N)=N1 (centres unmarked) [Compound 756] | –
5 | < 100 | 146 to 147 °C | – | CC1(c2cccc(OCCCc3cccnc3)c2)CCSC(N)=N1 (centres unmarked) [Compound 282] | –
6 | < 100 | 132 to 134 °C | – | COc1ccc(C(=O)NCc2cccc(C3(C)CCSC(N)=N3)c2)cc1.Cl (centres unmarked) [Compound 452] | –
7 | < 100 | 194 to 195 °C | – | CC1(c2cccc(CNC(=O)c3ccc(F)cc3)c2)CCSC(N)=N1.Cl (centres unmarked) [Compound 1241] | –
8 | < 100 | 167 to 169 °C | – | Cc1ccccc1Oc1ccc(C2(C)CCSC(N)=N2)cc1 (centres unmarked) [Compound 729] | –
9 | < 100 | 191 to 193 °C | – | CC(C)c1ccc(C(=O)Nc2cccc(C3(C)CCSC(N)=N3)c2)nc1 (centres unmarked) [Compound 1005] | –
10 | < 100 | 205 to 207 °C | – | CC1(c2cccc(SC(=O)c3ncc(Br)cn3)c2)CCSC(N)=N1 (centres unmarked) [Compound 900] | –
11 | < 100 | 178 to 180 °C | – | COc1ccc(CNc2cccc(C3(C)CCSC(N)=N3)c2)cc1.Cl.Cl (centres unmarked) [Compound 600] | –
12 | < 100 | 238 to 239 °C | – | CC1(c2cc(C#N)cc(NC(=O)c3ccc(Cl)cn3)c2)CCSC(N)=N1 (centres unmarked) [Compound 255] | –
13 | < 100 | 217 to 218 °C | – | CC1(c2cccc(Br)c2)CCSC(N)=N1.Cl (centres unmarked) [Compound 339] | –
14 | < 100 | 181 to 184 °C | – | CC1(c2ccc(C(=O)Nc3ccc(Cl)cn3)s2)CCSC(N)=N1 (centres unmarked) [Compound 500] | –
15 | < 100 | 154 to 158 °C | – | CC1(c2cccc(NCc3ccccn3)c2)CCSC(N)=N1 (centres unmarked) [Compound 333] | –
16 | < 100 | 91 to 96 °C | – | CC1(c2cccc(NC(=O)c3cnccn3)c2)CCSC(N)=N1 (centres unmarked) [Compound 164] | –
17 | < 100 | 194 to 196 °C | – | CC1(c2ccc(F)c(OCCCc3ccccc3)c2)CCSC(N)=N1.Cl (centres unmarked) [Compound 1069] | –
18 | < 100 | 155 to 156 °C | – | CC1(c2cc(N)cc(Br)c2)CCSC(N)=N1.Cl.Cl (centres unmarked) [Compound 588] | –
19 | – | 274 to 283 °C | 0.032 | CC1(c2cc(NC(=O)c3ccc(Cl)cn3)ccc2Cl)CCSC(N)=N1.Cl (centres unmarked) [Compound 1199] | –
20 | < 100 | 211 to 214 °C | – | CC(=O)Nc1cc(Cl)cnc1C(=O)Nc1cccc(C2(C)CCSC(N)=N2)c1 (centres unmarked) [Compound 511] | –

More lines, now with the values behind:

Row | SMILES | IC50 [1, 2] [µM] | melting point | IC50 [1, 3] [µM] | IC50 [1] [µM]
21 | COC(=O)c1cc(C(=O)Nc2cccc(C3(C)CCSC(N)=N3)c2)nn1C (centres unmarked) [Compound 687] | < 100 | 164 to 167 °C | – | –
22 | CC1(c2cccc(OCCOc3ccccc3)c2)CCSC(N)=N1.Cl (centres unmarked) [Compound 57] | < 100 | 197 to 198 °C | – | –
23 | CC1(c2cccc(/C=C/C(=O)Nc3ccc(Cl)cn3)c2)CCSC(N)=N1.Cl.Cl (centres unmarked) [Compound 504] | – | 209 to 219 °C | 2.5 | –
24 | CC1(c2cc(NC(=O)c3ccc(C(F)(F)F)cn3)cc(C(F)(F)F)c2)CCSC(N)=N1 (centres unmarked) [Compound 897] | – | 212 to 214 °C | 0.816 | –
25 | Cc1cnc(C(=O)Nc2cccc(C3(C)CCSC(N)=N3)c2)cn1.Cl (centres unmarked) [Compound 309] | – | 241 to 244 °C | 0.833 | –
26 | CC1(c2cc(Br)cc(NC(=O)c3ccno3)c2)CCSC(N)=N1.Cl (centres unmarked) [Compound 1132] | – | 175 to 180 °C (dec.) | 2.56 | –
27 | CC1(c2cccc(NC(=O)c3ccc(C(F)(F)F)cc3)c2)CCSC(N)=N1 (centres unmarked) [Compound 26] | – | 182 to 184 °C | 1.98 | –
28 | CC1(c2cccc(NC(=O)c3ccc4ccccc4n3)c2)CCSC(N)=N1 (centres unmarked) [Compound 935] | < 100 | 161 to 165 °C | – | –
29 | CC1(c2cc(Br)cc(NC(=O)c3ccc(Cl)cn3)c2)CCSC(N)=N1.Cl (centres unmarked) [Compound 165] | – | 246 to 248 °C | 0.0394 | –
30 | CO/N=C/c1cccc(C2(C)CCSC(N)=N2)c1 (centres unmarked) [Compound 804] | < 100 | 135 to 136 °C | – | –
31 | CC1(c2cccc(NC(=O)c3ccc(C(N)=O)cn3)c2)CCSC(N)=N1.Cl (centres unmarked) [Compound 73] | – | 266 to 269 °C | 0.435 | –
32 | CC1(c2ccc(F)cc2)CCCSC(N)=N1.Cl (centres unmarked) [Compound 129] | < 100 | 219 to 222 °C | – | –
33 | CC1(c2ccc(F)c(C(=O)Nc3ccc(Cl)cn3)c2)CCSC(N)=N1 (centres unmarked) [Compound 1125] | < 100 | 195 to 198 °C | – | –
34 | CC1(c2ccc(C(=O)Nc3ccccc3)s2)CCSC(N)=N1 (centres unmarked) [Compound 483] | < 100 | 224 to 227 °C | – | –
35 | CC1(c2ccc3ccccc3c2)CCNC(N)=N1.O=S(=O)(O)O (centres unmarked) [Compound 125] | < 100 | > 300 °C | – | –
36 | Cc1cc(C(=O)Nc2cc(Br)cc(C3(C)CCSC(N)=N3)c2)c(C)o1.Cl (centres unmarked) [Compound 436] | – | 254 to 256 °C | 0.16 | –
37 | CC1(c2cccc(OCCCc3ccc(Cl)cc3)c2)CCSC(N)=N1 (centres unmarked) [Compound 1207] | – | 106 to 108 °C | 4 | –
38 | CC1(c2cccc(NC(=O)c3ncc(C(F)(F)F)cc3F)c2)CCSC(N)=N1 (centres unmarked) [Compound 643] | < 100 | 155 to 157 °C | – | –
39 | CC1(c2cccc(NC(=O)c3ccc(Cl)cc3Cl)c2)CCSC(N)=N1 (centres unmarked) [Compound 625] | – | 107 to 109 °C | 1.29 | –
40 | COc1cnc(C(=O)Nc2cccc(C3(C)CCSC(N)=N3)c2)cn1 (centres unmarked) [Compound 243] | < 100 | 182 to 184 °C | – | –
41 | CC1(c2cc(F)cc(NC(=O)c3ccc(C(F)(F)F)cn3)c2)CCSC(N)=N1 (centres unmarked) [Compound 178] | < 100 | 224 to 225 °C | – | –
42 | CC1(c2cccc(NC(=O)c3ccc(Cl)cn3)c2)CCSC(N)=N1.Cl (centres unmarked) [Compound 793] | – | 269 °C (dec.) | 0.061 | –
43 | CC1(c2cccc(COc3ccccc3)c2)CCSC(N)=N1 (centres unmarked) [Compound 990] | < 100 | 126 to 129 °C | – | –
44 | CC1(c2cccc(NCc3ccncc3)c2)CCSC(N)=N1 (centres unmarked) [Compound 728] | < 100 | 179 to 182 °C | – | –
45 | CC1(c2cccc(NC(=O)c3ccc(C(F)(F)F)cn3)c2)CCSC(N)=N1.Cl (centres unmarked) [Compound 1244] | – | 268 to 288 °C | 0.13 | –
46 | CC1(c2ccccc2)CC(c2ccccc2)SC(N)=N1 (centres unmarked) [Compound 835] | < 100 | 139 to 140 °C | – | –
47 | Cc1cnc(C(=O)Nc2cccc(C3(C)CCSC(N)=N3)c2)cn1 (centres unmarked) [Compound 444] | – | 214 to 215 °C | – | < 100
48 | CC1(c2cccc(NC(=O)c3ccc(Cl)cn3)c2Cl)CCSC(N)=N1 (centres unmarked) [Compound 813] | < 100 | 204 to 205 °C | – | –
49 | CCOC(=O)CCc1cccc(C2(C)CCSC(N)=N2)c1.Cl (centres unmarked) [Compound 720] | < 100 | 133 to 138 °C | – | –

Reference: patent publication US8546380B2, “Aminodihydrothiazine derivatives” (Shionogi & Co., Ltd., priority 2005, dated 2013)
